Data on eleven compounds can be found in US9096597B2 (priority 2007, dated 2015).

Test [1] deals with Lassa GP-pseudotyped-virus. Put plainly: microbe, parasite or virus in culture. Conditions: for EC50: Human immunodeficiency virus 1, read-out: Activity (EC50 in μM vs. pseudotyped virus) Lassa. In kind it is cell-based, Lassa fever virus.
A further test relates to Junín pseudotyped virus. The experiment in a line: organism not typed. Conditions: read-out: Activity (EC50 in μM vs. pseudotyped virus) Junín. In kind it is cell-based.
The next test concerns VSVg pseudotyped virus. The experiment in a line: microbe, parasite or virus in culture. In kind it is cell-based, vesicular stomatitis virus (VSV). Conditions: Vesicular stomatitis virus, read-out: Activity (EC50 in μM vs. pseudotyped virus) VSVg.
For test [2], the system named is Machupo pseudotyped virus. Put plainly: organism not typed. It is filed as cell-based. The note with it: read-out: Activity (EC50 in μM vs. pseudotyped virus) Machupo.
The subject of the next test is Sabiá pseudotyped virus. The experiment in a line: organism not typed. Conditions: read-out: Activity (EC50 in μM vs. pseudotyped virus) Sabiá. It is filed as cell-based.
Test [3] relates to Guanarito pseudotyped virus. Put plainly: organism not typed. The note with it: read-out: Activity (EC50 in μM vs. pseudotyped virus) Guanarito. It is filed as cell-based.

pEC50: −log10 of the molar value. Where a name gives a salt, the structure may show the parent alone. Read-outs that look alike come from different tables or passages of the source.

For orientation: pEC50 means the EC50 on a negative log10 scale, so that one unit is a factor of ten. Usually EC50 stands for the concentration that produces a half-maximal response.

For the compound `CCOc1ccc(-n2cnc3cc(NCc4ccc(CC)cc4)cnc32)cc1` [Compound 1, [3-(4-Ethoxy-phenyl)-3H-imidazo[4,5-b]pyridin-6-yl]-(4-ethyl-benzyl)-amine], in test [1], the “potency against viral entry mediated by the Lassa envelope glycoprotein” value is “significantly increased potency”. Also, the pEC50 in test [1] (Human immunodeficiency virus 1, HEK-293T, read-out: EC50 against Lassa GP-pseudotyped-virus) was 9.89. The EC50 in test [1] is less than 0.05 µM; in the test on Junín pseudotyped virus, less than 0.05 µM; in the test on VSVg pseudotyped virus, 1 to 50 µM; in test [2] it was less than 0.05 µM; in the test on Sabiá pseudotyped virus it was less than 0.05 µM; in test [3], less than 0.05 µM.

Turning to `CCOc1ccc(-n2cnc3cc(NCc4ccc(CC)cc4)cnc32)cn1` [Compound 2, [3-(6-Ethoxy-pyridin-3-yl)-3H-imidazo[4,5-b]pyridin-6-yl]-(4-ethyl-benzyl)-amine], the results for the EC50 (in test [1]; in the test on VSVg pseudotyped virus) were less than 0.05 µM and 1 to 50 µM, respectively.

As for `CCOc1ccc(-n2cnc3cc(NCc4ccc(C)cn4)cnc32)cc1` [Compound 3, [3-(4-Ethoxy-phenyl)-3H-imidazo[4,5-b]pyridin-6-yl]-(5-methyl-pyridin-2-ylmethyl)-amine], the figures for the EC50 (in test [1]; in the test on VSVg pseudotyped virus) were 0.05 to 1 µM and more than 50 µM, respectively.

Take `CCOc1ccc(-n2cnc3nc(NCc4ccc(CC)cc4)ccc32)cc1` [Compound 4, [1-(4-Ethoxy-phenyl)-1H-imidazo[4,5-b]pyridin-5-yl]-(4-ethyl-benzyl)-amine]: the EC50 in test [1] was less than 0.05 µM; in the test with VSVg pseudotyped virus, more than 50 µM; in test [2], 0.05 to 1 µM; in the test on Sabiá pseudotyped virus, 0.05 to 1 µM.

`CCOc1ccc(-n2cnc3cc(N(Cc4ccc(CC)cc4)C(C)=O)cnc32)cc1` [Compound 6, N-[3-(4-Ethoxy-phenyl)-3H-imidazo[4,5-b]pyridin-6-yl]-N-(4-ethyl-benzyl)-acetamide]: the figures for the EC50 in test [1] and in test [2] were 0.05 to 1 µM and 1 to 50 µM, respectively.

For `CCOc1ccc(-n2cnc3cc(N(Cc4ccc(CC)cc4)C(=O)c4ccccc4)cnc32)cc1` [Compound 7, N-[3-(4-Ethoxy-phenyl)-3H-imidazo[4,5-b]pyridin-6-yl]-N-(4-ethyl-benzyl)-benzamide], the EC50 in test [1] and in test [2] was 0.05 to 1 µM throughout.

Take `CCOc1ccc(-n2cnc3cc(N(Cc4ccc(CC)cc4)C(=O)CN(C)C)cnc32)cc1` [Compound 8, 2-Dimethylamino-N-[3-(4-ethoxy-phenyl)-3H-imidazo[4,5-b]pyridin-6-yl]-N-(4-ethyl-benzyl)-acetamide hydrochloride]: the EC50 in test [1] and in test [2] was 0.05 to 1 µM in each case.

Take `CCOc1ccc(-n2cnc3cc(N(Cc4ccc(CC)cc4)C(=O)CCC(=O)O)cnc32)cc1` [Compound 9, N-[3-(4-Ethoxy-phenyl)-3H-imidazo[4,5-b]pyridin-6-yl]-N-(4-ethyl-benzyl)-succinamic acid]: the EC50 in test [1] and in test [2] was 1 to 50 µM each time.

`CCOc1ccc(-n2cnc3cc(N(Cc4ccc(CC)cc4)S(C)(=O)=O)cnc32)cc1` [Compound 10, N-[3-(4-Ethoxy-phenyl)-3H-imidazo[4,5-b]pyridin-6-yl]-N-(4-ethyl-benzyl)-methanesulfonamide]: the EC50 in test [1] and in test [2] was 1 to 50 µM throughout.

For `CCOc1ccc(-n2cnc3cc(N(Cc4ccc(CC)cc4)S(=O)(=O)c4ccccc4)cnc32)cc1` [Compound 11, N-[3-(4-Ethoxy-phenyl)-3H-imidazo[4,5-b]pyridin-6-yl]-N-(4-ethyl-benzyl)-benzenesulfonamide], the EC50 in test [1] and in test [2] was 0.05 to 1 µM throughout.

For `CCOc1ccc(-n2nnc3cc(NCc4ccc(CC)cc4)cnc32)cc1` [Compound 12, [3-(4-Ethoxy-phenyl)-3H-[1,2,3]triazolo[4,5-b]pyridin-6-yl]-(4-ethyl-benzyl)-amine], the EC50 in test [1] was less than 0.05 µM; in the test on VSVg pseudotyped virus it was more than 50 µM; in test [2], 0.05 to 1 µM; in the test on Sabiá pseudotyped virus, 0.05 to 1 µM.
